Paper PMC6372683, “Mechanism of the natural product moracin-O derived MO-460 and its targeting protein hnRNPA2B1 on HIF-1α inhibition” (Experimental & Molecular Medicine, 2019)
Values joined by “and” are separate entries in the source; they are usually repeats but may differ in a detail not shown here. Equal values may be shown once. “Also recorded” adds a separate entry of the source.

Key:
[1] = target: T1, full-length hnRNPA2B1 (1–353 aa) (Homo sapiens, UniProt P22626); experiment: BLItz association-dissociation binding assay, full-length hnRNPA2B1; conditions: 6XHis tagged protein, Con. 5 uM, biotin-MO-460 on streptavidin tip
T1 construct: 1–353 aa; His; made in house; host or cells: bacteria (pET28A vector)
T1 sequence (P22626 whole entry, the tested form may be a part): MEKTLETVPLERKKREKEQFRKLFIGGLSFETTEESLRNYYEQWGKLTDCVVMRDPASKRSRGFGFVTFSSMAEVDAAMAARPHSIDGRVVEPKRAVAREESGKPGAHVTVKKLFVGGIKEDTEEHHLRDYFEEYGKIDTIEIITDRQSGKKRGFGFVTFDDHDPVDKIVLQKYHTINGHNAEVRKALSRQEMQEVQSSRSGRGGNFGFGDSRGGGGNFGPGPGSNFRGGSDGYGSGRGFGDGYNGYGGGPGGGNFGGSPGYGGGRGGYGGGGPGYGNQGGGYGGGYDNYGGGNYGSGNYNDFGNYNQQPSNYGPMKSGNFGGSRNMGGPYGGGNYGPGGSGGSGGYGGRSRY
Method: The binding capacity of hnRNPA2B1 to Biotin-MO-460 was also analyzed using a BLItz™ (Fortebio, Inc., CA, US) instrument with a streptavidin-coated biosensor tip (Pall, USA). The streptavidin-coated tips were pre-wetted for 10 min in an incubation buffer (10 mM HEPES pH 7.4, 1% BSA and 0.05% Tween 20). The streptavidin-coated tips were immobilized with 1 μM Biotin-MO-460 in incubation buffer (10 mM HEPES pH 7.4, 1% BSA and 0.05% Tween 20) for 5 min. […] The concentrations were then incubated with HEPES for another 3 min to desorb the protein. Analysis of the accurate and precise kinetic constants was performed by the BLItz data analysis software (BLItz Pro 1.1).

[2] = target: T2, hnRNPA2B1 GRD3 (301–353 aa) (Homo sapiens, UniProt P22626); experiment: BLItz association-dissociation binding assay, GST-fused GRD3; conditions: Con. 5 uM
T2 construct: hnRNPA2B1(301-353aa); made in house; host or cells: bacteria (pGEX6P-1 vector)
T2 sequence (P22626 301-353): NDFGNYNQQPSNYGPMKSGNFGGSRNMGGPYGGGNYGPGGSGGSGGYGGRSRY
Method: The binding capacity of hnRNPA2B1 to Biotin-MO-460 was also analyzed using a BLItz™ (Fortebio, Inc., CA, US) instrument with a streptavidin-coated biosensor tip (Pall, USA). The streptavidin-coated tips were pre-wetted for 10 min in an incubation buffer (10 mM HEPES pH 7.4, 1% BSA and 0.05% Tween 20). The streptavidin-coated tips were immobilized with 1 μM Biotin-MO-460 in incubation buffer (10 mM HEPES pH 7.4, 1% BSA and 0.05% Tween 20) for 5 min. The biosensor was washed with HEPES (pH 7.4) and incubated with 250-, 500- and 1,000-nM concentrations of the full-length and truncated hnRNPA2B1 proteins for 3 min. The concentrations were then incubated with HEPES for another 3 min to desorb the protein. Analysis of the accurate and precise kinetic constants was performed by the BLItz data analysis software (BLItz Pro 1.1).

[3] = test system: HIF-1α mRNA in Hep3B cells; experiment: HIF-1α mRNA level by qRT-PCR / RT-PCR; format: cell-based, human
Method: Cells were lysed with TRIzol (Invitrogen) and proteins were extracted with chloroform. RNAs were precipitated with isopropanol and washed with 75% ethanol diluted with DEPC-treated water. Purity and concentration of RNA was analyzed using nano drop. The cDNA was synthesized from total RNA in a reaction mixture containing 5 × reaction buffer (250 mM Tris-HCl pH 8.3, 375 mM KCl, 15 mM MgCl2, 50 mM DTT), 50 μg/mL Oligo-dT, 10 mM dNTP, and 50,000 U M-MLV reverse transcriptase (Promega, Madison, WI). Amplified PCR products obtained with β actin-specific primers served as internal controls. The sequences of the primers used for this study are listed in Supplementary Materials and Methods 5 and 6.

[4] = test system: hnRNPA2B1 protein and HIF-1α mRNA complex; experiment: RNA-immunoprecipitation of hnRNPA2B1 with HIF-1α mRNA; format: cell-based, human; conditions: Hep3B cells, mimetic hypoxia, 50 μM, 24 h
Method: Hep3B cells were cultured at 37 °C in a 5% atmospheric concentration of CO2 and 200 μM of CoCl2 in the presence or absence of MO-460 (50 μM) and the cells harvested after 24 h. Total lysates of Hep3B were prepared in nuclear isolation buffer [128 mM sucrose, 40 mM Tris-HCl pH 7.5, 20 mM MgCl2, 4% Triton-X100]. After clarifying by centrifugation at 2500× g for 15 min at 4 °C the nuclear pellet was resuspended in RIP buffer [150 mM KCl, 25 mM Tris-HCl pH 7.5, 5 mM EDTA, 0.5 mM DTT, 0.5% Triton-X100, and protease inhibitor cocktail], and then incubated with 4 μg of either control IgG or the anti-hnRNPA2B1 antibody. After 1.5 h of incubation, protein-G agarose beads (Santa Cruz Biotechnologies, Santa Cruz, CA) were added and then precipitated. RNAs were purified from 90% of the samples. Eluted RNAs were complemented by reverse transcriptase with random primers. cDNAs were used in the subsequent PCR reactions with the indicated primer sets. The resulting PCR products were separated on a 1.5% agarose gel. The other 10% of the samples from which RNA was not collected were separated by SDS-PAGE and then immunoblotted with anti-hnRNPA2B1 antibody.

[5] = test system: HIF-1α translation in presence of hnRNPA2B1; experiment: In vitro transcription/translation assay of HIF-1α; format: biochemical, human; conditions: purified hnRNPA2B1 protein added
Method: HIF-1α proteins were synthesized using in vitro transcription/translation systems (Promega, Madison, WI), the protocol was followed the manufacturer’s instructions. In brief, mixtures containing reaction components were incubated at 30 °C for 60 min, and then analyzed by Western blotting using HIF-1α. The template was used HIF-1α plasmid DNA containing untranslated region (Korea human gene bank, Daejeon, Rep. of Korea), and full-length recombinant hnRNPA2B1 and MO-460 were added to the mixture.

[6] = target: T3, hnRNPA2B1 (Homo sapiens, UniProt P22626); experiment: In vitro pull-down assay of purified recombinant hnRNPA2B1; format: binding; conditions: excess amount of MO-460 added
T3 construct: made in house; host or cells: HEK293T
T3 sequence (P22626 whole entry): as the sequence (P22626 whole entry, the tested form may be a part) above
Method: HEK293T cells were cultured in DMEM medium supplemented with 10% fetal bovine serum in a humidified atmosphere containing 5% CO2. The cells were transfected with C-terminal Myc/DDK-tagged hnRNPA2B1 constructs. Recombinant protein was captured with an anti-DDK affinity column followed by conventional chromatography. A streptavidin-conjugated biotin linker was used as a control or streptavidin-conjugated biotinylated MO-460 were treated with 5% bovine serum albumin in PBS for 1 h at room temperature. Myc/DDK-tagged hnRNPA2B1 protein (1 ug) was incubated with streptavidin-conjugated biotin linker (1,200 μM) or streptavidin-conjugated biotinylated MO-460 (400 μM) in the presence or absence of MO-460 (400 μg) in binding buffer for 6 h at 4 °C. The reacted beads were washed with binding buffer [10 mM HEPES pH 7.9, 10 mM KCl, 0.1 mM EGTA, 0.1 mM EDTA, 0.5 mM PMSF, 0.025% 2-mercaptoethanol, and protease inhibitor cocktail] and the bound proteins eluted with SDS/PAGE sample buffer. Proteins were resolved by SDS/PAGE and detected by silver staining.

## CC(C)(O)[C@H]1Cc2cc3cc(-c4ccc(O)cc4)oc3cc2O1 [MO-460, (R)-4-[6-(1-Hydroxy-1-methylethyl)-5,6-dihydro-benzo[1,2-b;5,4-b’]difuran-2-yl]-phenol]
[1]
  Kd: 11.4 µM
[2]
  Kd: 0.299 µM
[3]; 50 µM, mimetic hypoxia, qRT-PCR
  reduction in HIF-1α mRNA level: ~ 10% and < 10%
[3]; normoxic condition
  effect on HIF-1α transcript level: no observed effect; also recorded: did not affect HIF-1α transcript levels
[4]
  interaction between hnRNPA2B1 and HIF-1α mRNA: abolished
[5]
  effect on hnRNPA2B1-enhanced HIF-1α translation: attenuated this effect
[6]
  interaction between hnRNPA2B1 and biotin-MO-460 on competition: eliminated
